Measurements taken from US12564193B2, “Isoxazoline-substituted benzamide derivative, and preparation method therefor and use thereof” (SHANDONG UNITED PESTICIDE INDUSTRY CO., LTD., priority 2020, dated 2026).
Where two headings read alike, the source gives them in different places.

Tests used:
Format in all cases: in vivo
Mythimna separata = assay: Insecticidal activity, spray on pre-infested radish plants: Mythimna separata; conditions: Mythimna separata, 144 h, read-out: fatality rate on Mythimna separata
Method in brief: (§1)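 Mortality was assessed visually after 6 days at 25° C and 70% relative humidity, following spray application of the test compound to pre-infested 12-15 day old radish plants. Each test was run in triplicate.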

Tetranychus cinnabarinus = assay: Acaricidal activity, slide immersion of female adult mites: Tetranychus cinnabarinus; conditions: read-out: fatality rate on Tetranychus cinnabarinus
Method in brief: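 Female adult mites stuck dorsally on tape on slides (4 rows of 10), dipped 5 s in test solution, excess blotted, incubated 24 h. Mites with immobile feet on brush touch scored dead; fatality rate calculated.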

Cnaphalocrocis medinalis = assay: Insecticidal activity, spray on pre-infested radish plants: Cnaphalocrocis medinalis; conditions: 144 h, read-out: fatality rate on Cnaphalocrocis medinalis
Method in brief: (§2)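 Radish plants (12-15 days), 30-40 pests/plant via leaf cutting, soil sand-covered; spray compound in acetone/methanol/DMSO; dry 1 h; mesh cover; 25° C, 70% RH, 6 d; visual mortality; three replicates.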

Chilo suppressalis = assay: Insecticidal activity, spray on pre-infested radish plants: Chilo suppressalis; conditions: Chilo suppressalis, 144 h, read-out: fatality rate on Chilo suppressalis
Method in brief: as §1

Pieris rapae = assay: Insecticidal activity, spray on pre-infested radish plants: Pieris rapae; conditions: 144 h, read-out: fatality rate on Pieris rapae
Method in brief: as §2

Plutella xylostella = assay: Insecticidal activity, spray on pre-infested radish plants: Plutella xylostella; conditions: Plutella xylostella, 144 h, read-out: fatality rate on Plutella xylostella
Method in brief: as §1

Spodoptera litura = assay: Insecticidal activity, spray on pre-infested radish plants: Spodoptera litura; conditions: 144 h, read-out: fatality rate on Spodoptera litura
Method in brief: as §1

[1] = test system: Frankliniella occidentalis; assay: Insecticidal activity, spray on pre-infested radish plants: Frankliniella occidentalis; conditions: Frankliniella occidentalis, 144 h, read-out: fatality rate on Frankliniella occidentalis
Method in brief: as §1

Cc1cc(C2=NOC(c3cc(Cl)c(F)c(Cl)c3)(C(F)(F)F)C2)ccc1C(=O)NCCc1ccc(Cl)nc1 (stereo not drawn) [Compound 15]
> 80%: pest or weed control at 0.1 ppm (Mythimna separata) | pest or weed control at 1 ppm (Mythimna separata) | pest or weed control at 10 ppm (Mythimna separata) | pest or weed control at 1 ppm (Tetranychus cinnabarinus; 24 h) | pest or weed control at 10 ppm (Tetranychus cinnabarinus; 24 h) | pest or weed control at 25 ppm (Tetranychus cinnabarinus; 24 h) | pest or weed control at 0.1 ppm (Cnaphalocrocis medinalis) | pest or weed control at 1 ppm (Cnaphalocrocis medinalis) | pest or weed control at 10 ppm (Cnaphalocrocis medinalis) | pest or weed control at 0.1 ppm (Chilo suppressalis) | pest or weed control at 1 ppm (Chilo suppressalis) | pest or weed control at 10 ppm (Chilo suppressalis) | pest or weed control at 0.1 ppm (Pieris rapae) | pest or weed control at 1 ppm (Pieris rapae) | pest or weed control at 10 ppm (Pieris rapae) | pest or weed control at 0.1 ppm (Plutella xylostella) | pest or weed control at 1 ppm (Plutella xylostella) | pest or weed control at 10 ppm (Plutella xylostella) | pest or weed control at 0.1 ppm (Spodoptera litura) | pest or weed control at 1 ppm (Spodoptera litura) | pest or weed control at 10 ppm (Spodoptera litura) | pest or weed control at 1 ppm [1] | pest or weed control at 10 ppm [1] | pest or weed control at 25 ppm [1]

Cc1cc(C2=NOC(c3cc(F)c(F)c(F)c3)(C(F)(F)F)C2)ccc1C(=O)NCc1ncc(Cl)cc1Cl (stereo not drawn) [Compound 12]
> 80%: pest or weed control at 0.1 ppm (Mythimna separata; dose 0.1 ppm, spray, 6 days) | pest or weed control at 1 ppm (Mythimna separata; dose 1 ppm, spray, 6 days) | pest or weed control at 10 ppm (Mythimna separata; dose 10 ppm, spray, 6 days) | pest or weed control at 1 ppm (Tetranychus cinnabarinus; dose 1 ppm, immersion 5 seconds, checked after 24 hours) | pest or weed control at 10 ppm (Tetranychus cinnabarinus; dose 10 ppm, immersion 5 seconds, checked after 24 hours) | pest or weed control at 25 ppm (Tetranychus cinnabarinus; dose 25 ppm, immersion 5 seconds, checked after 24 hours) | pest or weed control at 0.1 ppm (Cnaphalocrocis medinalis; dose 0.1 ppm, spray, 6 days) | pest or weed control at 1 ppm (Cnaphalocrocis medinalis; dose 1 ppm, spray, 6 days) | pest or weed control at 10 ppm (Cnaphalocrocis medinalis; dose 10 ppm, spray, 6 days) | pest or weed control at 0.1 ppm (Chilo suppressalis; dose 0.1 ppm, spray, 6 days) | pest or weed control at 1 ppm (Chilo suppressalis; dose 1 ppm, spray, 6 days) | pest or weed control at 10 ppm (Chilo suppressalis; dose 10 ppm, spray, 6 days) | pest or weed control at 0.1 ppm (Pieris rapae; dose 0.1 ppm, spray, 6 days) | pest or weed control at 1 ppm (Pieris rapae; dose 1 ppm, spray, 6 days) | pest or weed control at 10 ppm (Pieris rapae; dose 10 ppm, spray, 6 days) | pest or weed control at 0.1 ppm (Plutella xylostella; dose 0.1 ppm, spray, 6 days) | pest or weed control at 1 ppm (Plutella xylostella; dose 1 ppm, spray, 6 days) | pest or weed control at 10 ppm (Plutella xylostella; dose 10 ppm, spray, 6 days) | pest or weed control at 0.1 ppm (Spodoptera litura; dose 0.1 ppm, spray, 6 days) | pest or weed control at 1 ppm (Spodoptera litura; dose 1 ppm, spray, 6 days) | pest or weed control at 10 ppm (Spodoptera litura; dose 10 ppm, spray, 6 days) | pest or weed control at 1 ppm ([1]; dose 1 ppm, spray, 6 days) | pest or weed control at 10 ppm ([1]; dose 10 ppm, spray, 6 days) | pest or weed control at 25 ppm ([1]; dose 25 ppm, spray, 6 days)
